Data taken from patent US8604217B2, “Compound, a process for its preparation, a pharmaceutical composition, use of a compound, a method for modulating or regulating serine/threonine kinases and a serine/threonine kinases modulating agent” (Selvita S.A., priority 2009, dated 2013).

Experiments:
Assay in all cases: KinaseProfiler kinase panel
Type in all cases: biochemical
[1] = target: Mer(h) (Homo sapiens (Human), UniProt Q12866)
[2] = target: CDK7/cyclinH/MAT1(h) (Homo sapiens (Human), UniProt P50613)
Sequence of CDK7/cyclinH/MAT1(h) (P50613 whole entry): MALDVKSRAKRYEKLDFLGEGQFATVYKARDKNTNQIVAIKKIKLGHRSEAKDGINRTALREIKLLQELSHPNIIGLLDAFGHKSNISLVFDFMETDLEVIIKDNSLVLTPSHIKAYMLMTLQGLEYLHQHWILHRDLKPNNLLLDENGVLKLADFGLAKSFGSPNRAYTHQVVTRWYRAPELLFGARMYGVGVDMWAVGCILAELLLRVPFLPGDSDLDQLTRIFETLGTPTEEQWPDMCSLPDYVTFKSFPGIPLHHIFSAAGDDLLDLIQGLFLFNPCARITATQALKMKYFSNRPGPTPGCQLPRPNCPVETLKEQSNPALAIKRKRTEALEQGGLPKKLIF
Sequence of CDK7/cyclinH/MAT1(h) (P51946 whole entry partner): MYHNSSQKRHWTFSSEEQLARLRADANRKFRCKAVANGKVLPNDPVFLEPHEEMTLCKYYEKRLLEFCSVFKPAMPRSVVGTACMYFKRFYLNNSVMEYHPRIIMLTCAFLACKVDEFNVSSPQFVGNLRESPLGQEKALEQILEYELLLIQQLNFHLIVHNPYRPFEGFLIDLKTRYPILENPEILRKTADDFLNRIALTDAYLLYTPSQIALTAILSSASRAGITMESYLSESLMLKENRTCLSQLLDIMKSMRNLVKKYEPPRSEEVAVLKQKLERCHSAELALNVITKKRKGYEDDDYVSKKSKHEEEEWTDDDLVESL
Sequence of CDK7/cyclinH/MAT1(h) (P51948 whole entry partner): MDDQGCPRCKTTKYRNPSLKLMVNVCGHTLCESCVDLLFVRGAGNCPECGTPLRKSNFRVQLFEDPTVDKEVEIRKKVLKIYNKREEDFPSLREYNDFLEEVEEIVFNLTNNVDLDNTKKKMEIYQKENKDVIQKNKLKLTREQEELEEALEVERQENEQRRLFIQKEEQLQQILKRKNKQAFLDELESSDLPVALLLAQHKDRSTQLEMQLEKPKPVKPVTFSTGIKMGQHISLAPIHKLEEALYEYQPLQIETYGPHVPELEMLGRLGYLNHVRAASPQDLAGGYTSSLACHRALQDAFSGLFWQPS

[3] = target: PKCμ(h) (Homo sapiens (Human), UniProt Q15139)
Sequence of PKCμ(h) (Q15139 whole entry): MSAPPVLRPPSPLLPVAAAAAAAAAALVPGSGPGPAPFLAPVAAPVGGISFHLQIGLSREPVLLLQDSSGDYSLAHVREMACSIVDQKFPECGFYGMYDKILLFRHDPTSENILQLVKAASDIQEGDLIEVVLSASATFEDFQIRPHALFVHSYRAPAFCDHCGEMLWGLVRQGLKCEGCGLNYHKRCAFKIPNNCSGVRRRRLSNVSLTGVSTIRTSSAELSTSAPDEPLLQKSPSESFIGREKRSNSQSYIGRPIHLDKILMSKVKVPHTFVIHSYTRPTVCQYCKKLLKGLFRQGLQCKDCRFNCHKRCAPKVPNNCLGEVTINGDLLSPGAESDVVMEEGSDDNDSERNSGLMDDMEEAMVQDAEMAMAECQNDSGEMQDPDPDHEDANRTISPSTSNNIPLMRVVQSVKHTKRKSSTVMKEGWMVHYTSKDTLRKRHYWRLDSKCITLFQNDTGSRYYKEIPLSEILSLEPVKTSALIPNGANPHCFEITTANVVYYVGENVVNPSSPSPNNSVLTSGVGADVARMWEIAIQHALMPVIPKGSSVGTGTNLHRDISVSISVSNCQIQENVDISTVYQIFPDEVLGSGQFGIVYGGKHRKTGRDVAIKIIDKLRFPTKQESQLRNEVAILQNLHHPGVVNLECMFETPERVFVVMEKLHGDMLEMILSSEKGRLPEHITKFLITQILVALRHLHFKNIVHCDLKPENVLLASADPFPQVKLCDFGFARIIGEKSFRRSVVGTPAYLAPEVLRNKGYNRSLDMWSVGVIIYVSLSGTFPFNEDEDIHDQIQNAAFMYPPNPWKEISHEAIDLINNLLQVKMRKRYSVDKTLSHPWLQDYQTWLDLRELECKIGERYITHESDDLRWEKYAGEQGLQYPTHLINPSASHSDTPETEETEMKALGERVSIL

Sequence of Mer(h) (Q12866 21-999): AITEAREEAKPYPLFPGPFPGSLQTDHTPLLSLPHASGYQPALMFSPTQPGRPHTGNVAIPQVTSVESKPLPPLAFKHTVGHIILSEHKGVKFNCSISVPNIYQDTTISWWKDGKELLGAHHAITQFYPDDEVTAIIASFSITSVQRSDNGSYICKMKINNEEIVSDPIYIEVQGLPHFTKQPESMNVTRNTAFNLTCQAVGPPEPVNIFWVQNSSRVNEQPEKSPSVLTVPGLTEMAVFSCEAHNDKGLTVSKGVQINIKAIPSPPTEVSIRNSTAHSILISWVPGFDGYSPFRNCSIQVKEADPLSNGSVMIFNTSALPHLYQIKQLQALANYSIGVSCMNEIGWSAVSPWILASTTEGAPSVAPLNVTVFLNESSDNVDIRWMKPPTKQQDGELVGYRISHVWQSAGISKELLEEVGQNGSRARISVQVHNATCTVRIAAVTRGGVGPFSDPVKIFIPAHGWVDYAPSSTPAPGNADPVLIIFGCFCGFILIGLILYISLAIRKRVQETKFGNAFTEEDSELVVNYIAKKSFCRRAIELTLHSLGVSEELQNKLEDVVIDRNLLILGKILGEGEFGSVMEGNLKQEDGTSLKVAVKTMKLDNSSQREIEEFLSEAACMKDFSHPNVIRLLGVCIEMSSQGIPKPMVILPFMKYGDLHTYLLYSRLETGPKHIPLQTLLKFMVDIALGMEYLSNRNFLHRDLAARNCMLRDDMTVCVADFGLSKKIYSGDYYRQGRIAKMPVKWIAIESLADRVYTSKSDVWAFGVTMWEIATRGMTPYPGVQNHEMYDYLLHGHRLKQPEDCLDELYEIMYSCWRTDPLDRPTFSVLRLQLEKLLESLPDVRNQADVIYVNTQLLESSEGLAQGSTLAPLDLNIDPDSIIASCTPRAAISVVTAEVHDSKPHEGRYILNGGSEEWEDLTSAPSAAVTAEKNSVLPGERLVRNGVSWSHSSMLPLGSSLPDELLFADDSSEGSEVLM

remaining activity at 1 µM [1]: 14%
remaining activity at 1 µM [2]: 25%
remaining activity at 1 µM [3]: 30%
SMILES: CCn1c(N2CCNCC2)nc2c(Br)c(Br)c(Br)c(Br)c21 [Compound 416, 4,5,6,7-tetrabromo-1-ethyl-2-(piperazin-1-yl)-1H-benzo[d]imidazole]
